The first assay relates to Human Colon HCT116 tumor cells. Put plainly: HCT116 Colon Carcinoma Cell Growth Inhibition (WST-1). The assay is classed as cell-based. The note with it: HCT-116, 72 hr exposure. The protocol: Human HCT 116 colon carcinoma cells were grown monolayer culture in RPMI 1640 medium supplemented with 10% fetal bovine serum and 1% penicillin-streptomycin (GibcoBRL, Grand Island, N.Y.). HCT116 cells in exponential growth phase were exposed to various concentrations of the test compounds at 37° C. for 72 hr in 5% carbon dioxide/air. After exposure to the agent, the cells were washed with 0.9% phosphate buffered saline. Growth inhibition was determined using WST-1 cell proliferation reagent as described above. The results are expressed as the growth fraction of treated cells compared with control cultures. Representative compounds of the present invention were tested for efficacy against the human colon HCT116 tumor cells.
Consider `O=C(NS(=O)(=O)c1ccc(Br)s1)c1ccc([N+](=O)[O-])cc1Cl` [Example 58, N-[2-chloro-4-nitrobenzoyl]-5-bromothiophene-2-sulfonamide], for which the 50% inhibitory concentration (IC50) (as a rule, the concentration needed to halve the response being measured) is 5.2 µM. `O=C(NS(=O)(=O)c1ccc(Br)s1)c1ccc(Cl)cc1Cl` [Example 63, N-[2,4-dichlorobenzoyl]-5-bromothiophene-2-sulfonamide] had an IC50 of 1.3 µM. On the same count and under the same terms, then `O=C(NS(=O)(=O)c1ccc(Cl)s1)c1ccc(Cl)cc1Cl` [Example 61, N-[2,4-dichlorobenzoyl]-5-chlorothiophene-2-sulfonamide], with 1 µM; and `COc1ccc(S(=O)(=O)NC(=O)c2ccc(Cl)cc2Cl)s1` [Example 19, N-[2,4-dichlorobenzoyl]-5-methoxythiophene-2-sulfonamide], with 5.8 µM. Consider `Cc1ccc(S(=O)(=O)NC(=O)c2ccc(Cl)cc2Cl)s1` [Example 16, N-[2,4-dichlorobenzoyl]-5-(methyl)thiophene-2-sulfonamide], for which the concentration for half-maximal inhibition (IC50) was found to be 3.7 µM.

In turn, `CCc1ccc(S(=O)(=O)NC(=O)c2ccc(Cl)cc2Cl)s1` [Example 17, N-[2,4-dichlorobenzoyl]-5-(ethyl)thiophene-2-sulfonamide] had an IC50 of 5 µM.

Regarding `CCCc1ccc(S(=O)(=O)NC(=O)c2ccc(Cl)cc2Cl)s1` [Example 18, N-[2,4-dichlorobenzoyl]-5-(propyl)thiophene-2-sulfonamide], the midpoint of inhibition, the IC50, lay at 13.2 µM. `Cc1cc(Cl)ccc1C(=O)NS(=O)(=O)c1ccc(Cl)s1` [Example 30, N-[4-chloro-2-methylbenzoyl]-5-chlorothiophene-2-sulfonamide] came in with a half-inhibitory concentration (IC50) of 15.8 µM. On the same count and under the same terms, with `Cc1cc(Cl)ccc1C(=O)NS(=O)(=O)c1ccc(Br)s1` [Example 2, N-[4-chloro-2-methylbenzoyl]-5-bromothiophene-2-sulfonamide] the figure was 6 µM; with `O=C(NS(=O)(=O)c1ccc(Cl)s1)c1ccc(Br)cc1Cl` [Example 1, N-[4-bromo-2-chlorobenzoyl]-5-chlorothiophene-2-sulfonamide], 5.6 µM; with `O=C(NS(=O)(=O)c1ccc(Cl)s1)c1ccc(C(F)(F)F)cc1C(F)(F)F` [Example 4, N-[2,4-bis(trifluoromethyl)-benzoyl]-5-chlorothiophene-2-sulfonamide], 7.7 µM. Take `O=C(NS(=O)(=O)c1cccs1)c1ccc(Cl)cc1Cl` [Example 55, N-[2,4-dichlorobenzoyl]-thiophene-2-sulfonamide]: the IC50 worked out at 4.5 µM.

Compound `O=C(NS(=O)(=O)c1cc(Br)c(Cl)s1)c1ccc(Br)cc1Cl` [Example 3, N-[4-bromo-2-chlorobenzoyl]-4-bromo-5-chlorothiophene-2-sulfonamide] showed an IC50 of 14.7 µM. For the compound `Cc1ccc(C(=O)NS(=O)(=O)c2ccc(Cl)s2)c(Br)c1` [Example 31, N-[2-bromo-4-methylbenzoyl]-5-chlorothiophene-2-sulfonamide], the midpoint of inhibition, the IC50, lay at 9.1 µM. `COCc1ccc(S(=O)(=O)NC(=O)c2ccc(Cl)cc2Cl)s1` [Example 20, N-[2,4-dichlorobenzoyl]-5-methoxymethyl-thiophene-2-sulfonamide] showed an IC50 of 5.7 µM. On the same count and under the same terms, then `Cc1ccc(C(=O)NS(=O)(=O)c2ccc(Cl)s2)c(C)c1` [Example 6, N-[2,4-dimethylbenzoyl]-5-chlorothiophene-2-sulfonamide], with 20.6 µM; and `Cc1cc(Br)ccc1C(=O)NS(=O)(=O)c1ccc(C#N)s1` [Example 29, N-[4-bromo-2-methylbenzoyl]-5-cyanothiophene-2-sulfonamide], with 17.3 µM; and `Cc1ccc(C(=O)NS(=O)(=O)c2ccc(Br)s2)c(Cl)c1` [Example 7, N-[2-chloro-4-methylbenzoyl]-5-bromothiophene-2-sulfonamide], with 5.2 µM. With `Cc1cc(Cl)ccc1C(=O)NS(=O)(=O)c1ccc(C#N)s1` [Example 28, N-[4-chloro-2-methylbenzoyl]-5-cyanothiophene-2-sulfonamide], inhibition was half-maximal at 8 µM (IC50).

Compound `O=C(NS(=O)(=O)c1ccc(Br)s1)c1ccc(Br)cc1Br` [Example 32, N-[2,4-dibromobenzoyl]-5-bromothiophene-2-sulfonamide] registered a 50% inhibitory concentration (IC50) of 3.9 µM.

Regarding `Cc1cc(Br)ccc1C(=O)NS(=O)(=O)c1ccc(Br)s1` [Example 57, N-[4-bromo-2-methylbenzoyl]-5-bromothiophene-2-sulfonamide], the IC50 came out at 3.4 µM. Same read-out and setting: then `O=C(NS(=O)(=O)c1ccc(Br)s1)c1ccc(Br)cc1Cl` [Example 54, N-[4-bromo-2-chlorobenzoyl]-5-bromothiophene-2-sulfonamide], with 17 µM; and `O=C(NS(=O)(=O)c1ccc(Br)s1)c1ccc(Cl)cc1F` [Example 9, N-[4-chloro-2-fluorobenzoyl]-5-bromothiophene-2-sulfonamide], with 21.7 µM.

Turning to `O=C(NS(=O)(=O)c1ccc(-c2ccccn2)s1)c1ccc(Cl)cc1Cl` [Example 56, N-[2,4-dichlorobenzoyl]-5-(2-pyridyl)-thiophene-2-sulfonamide], the concentration for half-maximal inhibition (IC50) turned out to be 5.4 µM.

Another assay concerns Human Colon Carcinoma HT-29. Put plainly: Human Tumor Xenograft Assay, tumor growth delay. In kind it is in vivo, mouse. The note with it: Experiment A, 30 mg/kg IV, 5 consecutive days, 2 days rest. The text has this:
Inhibition of tumors transplanted into mice is an accepted procedure for studying the efficacy of antitumor agents (Corbett, et al., In vivo Methods for Screening and Preclinical Testing; Use of rodent solid tumors for drug discovery., In: Anticancer Drug Development Guide: Preclinical Screening, Clinical Trials, and Approval, B. Teicher (ed), Humana Press Inc., Totowa, N.J., Chapter 5, pages 75-99 (1997); (Corbett, et al., Int. J. Pharmacog., 33, Supplement, 102-122 (1995)). Murine tumors or human xenografts were implanted essentially as described by Corbett in In vivo Methods for Screening and Preclinical Testing; Use of rodent solid tumors for drug discovery. Briefly, the murine tumor or human xenograft was implanted subcutaneously using either 12-gauge trocar implants or counted number of cells. The location for the trocar insertion is midway between the axillary and inguinal region along the side of the mouse. The trocar is slipped approximately ¾ of an inch subcutaneously up toward the axilla before discharging the tumor fragment, and pinching the skin as the trocar is removed. Alternatively, human tumor cells prepared from cell culture (1×10^7 cells) mixed with an equal volume of Matrigel (Becton-Dickinson) were implanted subcutaneously in a hind-leg of a male or female nude mouse (Charles River). A test compound in vehicle or vehicle alone was administered by intravenous bolus injection (iv), intraperitoneal injection (ip), or oral gavage (po). Each treatment group, as well as a group of untreated control animals, consisted of eight to ten animals per group in each experiment. Subcutaneous tumor response was monitored by tumor volume measurement performed twice each week over the course of the experiment (60-120 days). Body weights were taken as a general measure of toxicity. The subcutaneous tumor data were analyzed by determining the median […] for each treatment group over the course of the experiment and calculating the tumor growth delay as the difference in days for the treatment versus the control tumors to reach a volume of either 500 or 1000 mm^3.
The compound of Example 64 was tested in two separate laboratories against a variety of murine and human tumors substantially as described supra. The parameters measured in each experiment are summarized in the following paragraphs. Tumor Weight(mg)=(a×b^2)/2 where a=tumor length (mm) and b=tumor width (mm).
Tumor Growth Delay=T−C where T is the median time (days) required for the treatment group tumors to reach a predetermined size, and C is the median time (days) for the control group tumors to reach the same size.
After palpable tumors were observed drug was administered IV for 5 consecutive days, animals rested for 2 days and compound dosed IV again for 5 consecutive days.
On to `O=C([N-]S(=O)(=O)c1ccc(Br)s1)c1ccc(Cl)cc1Cl.[Na+]` [Example 64, N-[2,4-dichlorobenzoyl]-5-bromothiophene-2-sulfonamide sodium salt], for which the “Tumor Growth Delay” value worked out at 0 ± 2 days.

Staying with this assay, now noted: Experiment A, 60 mg/kg IV, 5 consecutive days, 2 days rest.
Turning to `O=C([N-]S(=O)(=O)c1ccc(Br)s1)c1ccc(Cl)cc1Cl.[Na+]` [Example 64, N-[2,4-dichlorobenzoyl]-5-bromothiophene-2-sulfonamide sodium salt], the “Tumor Growth Delay” value is 2 ± 2 days.

Still in this assay, the particulars now being: Experiment A, 80 mg/kg IV, 5 consecutive days, 2 days rest.
With `O=C([N-]S(=O)(=O)c1ccc(Br)s1)c1ccc(Cl)cc1Cl.[Na+]` [Example 64, N-[2,4-dichlorobenzoyl]-5-bromothiophene-2-sulfonamide sodium salt], the “Tumor Growth Delay” value amounted to 2 ± 2 days.

The same assay, now with this note: Experiment B, 30 mg/kg IV, 5 consecutive days, 2 days rest.
As for `O=C([N-]S(=O)(=O)c1ccc(Br)s1)c1ccc(Cl)cc1Cl.[Na+]` [Example 64, N-[2,4-dichlorobenzoyl]-5-bromothiophene-2-sulfonamide sodium salt], the “Tumor Growth Delay” value amounted to 9 ± 4 days.

Still in this assay, the particulars now being: Experiment B, 60 mg/kg IV, 5 consecutive days, 2 days rest.
With `O=C([N-]S(=O)(=O)c1ccc(Br)s1)c1ccc(Cl)cc1Cl.[Na+]` [Example 64, N-[2,4-dichlorobenzoyl]-5-bromothiophene-2-sulfonamide sodium salt], the “Tumor Growth Delay” value came out at 3 ± 4 days.

The same assay, now with this note: Experiment B, 80 mg/kg IV, 5 consecutive days, 2 days rest.
In the case of `O=C([N-]S(=O)(=O)c1ccc(Br)s1)c1ccc(Cl)cc1Cl.[Na+]` [Example 64, N-[2,4-dichlorobenzoyl]-5-bromothiophene-2-sulfonamide sodium salt], the “Tumor Growth Delay” value was found to be 8 ± 3.6 days.

(Values after patent publication US7250430B2, “Thiophene-and thiazolesulfonamides as antineoplastic agents” (Eli Lilly and Company, priority 2006, dated 2007).)
